Counter-ions that a name gives are not always drawn. Marks after values point to notes of the source that are not given here.
Assays:
[1] = biological target: xanthine oxidase (Bos taurus, UniProt P80457); experiment: Xanthine oxidase assay (lucigenin); assay type: biochemical
Description: Xanthine oxidase activity was measured by lucigenin. Reaction mixtures contained 0.1 mU xanthine oxidase, 0.25 mM Xanthine, and 0.4 mM lucigenin with the indicated inhibitor (0–20 μM). Luminescence measured over 30 min at 37 °C with luminometor (DTX800, Beckman coulter).

[2] = Pharmacokinetics after IV and oral administration to rats; assay type: in vivo
Description: Supplementary Table S1. Pharmacokinetic parameters of Ewha-89403 following IV and oral administration at the doses of 1 mg/kg and 10 mg/kg, respectively, to rats (n=4-5) PK Parameters IV Injection Oral Administration
Absolute Bioavailability (BA) = 4.3 %
Supplementary Table S2. Pharmacokinetic parameters of Ewha-18278 following IV and oral administration at the doses of 2 mg/kg and 20 mg/kg, respectively, to rats (n=5-6) […]
Absolute Bioavailability (BA) = 63.8 %

[3] = system: Mature OCs; experiment: TUNEL assay, apoptosis of OCs; assay type: cell-based; conditions: 10 μM, absence or presence of RANKL
Description: Apoptotic cells were detected by the […] nick end labeling (TUNEL) assay In Situ Cell Death Detection Kit (Roche Applied Science, Basel, Switzerland) according to the manufacturer’s instructions. […] The percentage of positively stained cells was determined by counting the numbers of TUNEL labeled and DAPI stained cells. The experiments were repeated 3 times, and the mean values were calculated.
Supplementary Figure S5. […] Mature OCs were
generated with M-CSF and RANKL. Cells were washed with PBS and then treated with Ewha-18278
(10 μM) or DMSO with or without RANKL for 20 hours. Cells were subjected into TUNEL assay. Data […]

[4] = system: OVX-induced osteoporotic ddY mice; experiment: Tibia histopathology-histomorphometry in OVX mice; assay type: in vivo
[5] = Body weight changes in OVX mice; assay type: in vivo, ddY mice; conditions: risedronate 2.5 mg/kg; Ewha-18278 2.5, 5, 10 and 20 mg/kg; 28 days
Description: The study was reviewed and approved by the Institutional Animal Care and Use Committee (IACUC) of Center for Laboratory Animal Sciences, Ewha Industry-University Cooperation Foundation, Ewha Womans University. Experimental methods were carried out in accordance with the approved ethic guidelines in Ewha Industry-University Cooperation Foundation, Ewha Womans University. Beginning 4 weeks after OVX, the female ddY mice received 2.5, 5, 10, or 20 mg/kg of #18–278, 2.5 mg/kg of risedronate, or vehicle once daily for 28 days. The Changes in body weight, bone weight, bone mineral density (BMD), failure load (FL), bone calcium (Ca), inorganic phosphorus (P) contents, histology and histomorphology were monitored. Serum osteocalcin and bone specific alkaline phosphatase (bALP) were monitored in mice receiving Ewha-18278.
R esi dronat e 2. 5mg/kg t reated mi ce […]
D ay after administration (d)
Supplementary Figure S7. Body weight changes in OVX mice. We selected eight mice per group showing more increases of body weights as compared with sham-operated mice and regarded as good OVX animals at four weeks after OVX surgery, consequently, significant increases of body weights were detected in all OVX groups as compared with sham control mice throughout 28 days of […]
mice, in the present study. Values are expressed mean ± S.D. of eight mice. Risedronate sodium was administered at 2.5mg/kg levels. […]

[6] = system: OVX-induced osteoporotic ddY mice; experiment: Right femur BMD by DEXA in OVX mice; assay type: in vivo; conditions: oral once daily 28 days
[7] = system: BMMs; experiment: RANKL-induced intracellular ROS generation (DCF fluorescence); assay type: cell-based, C57BL/6 mice
Excerpt: RANKL-induced ROS generation was monitored by confocal microscopic analysis of DCF fluorescence. Data represent three repeated experiments and are shown as mean ± SD (n = 3). […] (D) TRAP^+ MNCs containing more than 3 nuclei were counted. Data represent mean ± S.D., *P < 0.005. Scale bar, 500 μm.
DCF-DA is oxidized by ROS to the highly fluorescent DCF. After washed with HBSS, the cells were then examined with a laser scanning confocal microscope (LSM510; Zeiss) equipped with an argon laser tuned to an excitation wavelength of 488 nm, an LP505 emission filter (515–540 nm), and a Zeiss Axiovert objective lens. Images were digitized and stored at a resolution of 512 by 512 pixels. Five groups of cells were randomly selected from each sample, and the mean relative fluorescence intensity for each group of cells was measured with a Zeiss vision system and then averaged for all groups. All experiments were repeated at least three times.

[8] = system: Pre-OCs; experiment: OC fusion assay; assay type: cell-based, C57BL/6 mice; conditions: 10 μM, 24 hours
Description: Cells were stained for TRAP using a leukocyte acid phosphatase cytochemistry kit (Sigma-Aldrich, St. Louis, MO, USA) according to the manufacturer’s instructions. […]
Scale bar, 500 μm. (C,D) Mature OCs were generated with M-CSF and RANKL, cells were seeded onto dentine discs and further cultured with […]
Cells were stained with hematoxylin for visualization of pit formation (C). The area of resorption pits were measured with Image-Pro Plus 4.5 (D). Scale bar, 500
μm. Data represent mean ± S.D., n.s., not significant. […]

[9] = system: BMMs; experiment: RANKL-induced signaling, immunoblot of phospho-ERK, p38, JNK, IκBα; assay type: cell-based, C57BL/6 mice; conditions: BMMs pretreated 1 hour
Excerpt: Data represent mean ± SD. […] Actin serves as a loading control.

[10] = system: OVX-induced osteoporotic ddY mice; experiment: Bone strength (failure load, three-point bending test) in OVX mice; assay type: in vivo; conditions: oral once daily 28 days; risedronate 2.5 mg/kg
[11] = 2.5 mg/kg oral once daily 28 days
[12] = 5 mg/kg oral once daily 28 days
[13] = 10 mg/kg oral once daily 28 days
[14] = 20 mg/kg oral once daily 28 days

xanthine oxidase, sequence (P80457 2-1332): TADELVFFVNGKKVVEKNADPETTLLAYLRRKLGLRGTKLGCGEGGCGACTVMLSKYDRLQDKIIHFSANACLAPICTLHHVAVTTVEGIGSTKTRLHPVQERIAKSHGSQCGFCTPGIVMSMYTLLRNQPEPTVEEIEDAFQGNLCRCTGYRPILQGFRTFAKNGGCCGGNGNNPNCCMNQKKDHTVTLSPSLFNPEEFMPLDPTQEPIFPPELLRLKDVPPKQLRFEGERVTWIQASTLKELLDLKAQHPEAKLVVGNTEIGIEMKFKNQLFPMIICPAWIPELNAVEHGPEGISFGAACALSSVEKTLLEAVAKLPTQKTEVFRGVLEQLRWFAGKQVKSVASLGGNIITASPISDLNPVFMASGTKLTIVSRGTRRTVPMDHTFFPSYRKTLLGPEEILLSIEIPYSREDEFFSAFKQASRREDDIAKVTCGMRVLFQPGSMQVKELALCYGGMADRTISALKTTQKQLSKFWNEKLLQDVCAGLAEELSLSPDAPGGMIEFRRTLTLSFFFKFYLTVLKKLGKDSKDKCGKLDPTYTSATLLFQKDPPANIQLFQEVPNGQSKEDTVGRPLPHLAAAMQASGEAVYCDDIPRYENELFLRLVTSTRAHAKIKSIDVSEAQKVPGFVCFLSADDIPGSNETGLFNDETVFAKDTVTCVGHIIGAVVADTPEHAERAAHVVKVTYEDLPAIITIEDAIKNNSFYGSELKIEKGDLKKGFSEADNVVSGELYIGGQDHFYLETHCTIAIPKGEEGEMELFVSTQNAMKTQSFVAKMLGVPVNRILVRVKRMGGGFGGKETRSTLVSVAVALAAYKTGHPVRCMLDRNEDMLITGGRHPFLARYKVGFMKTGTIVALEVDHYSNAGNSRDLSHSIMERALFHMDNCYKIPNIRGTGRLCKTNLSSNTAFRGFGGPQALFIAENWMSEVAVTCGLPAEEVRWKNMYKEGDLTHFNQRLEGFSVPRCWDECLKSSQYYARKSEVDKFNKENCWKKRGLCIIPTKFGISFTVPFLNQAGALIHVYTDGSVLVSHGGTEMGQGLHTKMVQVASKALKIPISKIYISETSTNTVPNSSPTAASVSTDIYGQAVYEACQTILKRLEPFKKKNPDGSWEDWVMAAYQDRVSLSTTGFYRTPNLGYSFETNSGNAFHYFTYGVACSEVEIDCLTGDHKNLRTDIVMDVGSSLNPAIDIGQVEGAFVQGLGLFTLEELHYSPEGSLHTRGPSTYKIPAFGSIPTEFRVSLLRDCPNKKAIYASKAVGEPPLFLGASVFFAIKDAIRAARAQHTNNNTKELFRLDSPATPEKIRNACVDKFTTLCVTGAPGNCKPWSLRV

CCCc1c(-c2ccccc2)nn(-c2ccccn2)c1O [Ewha-18278, 3-phenyl-1-(pyridin-2-yl)-4-propyl-1H-5-hydroxypyrazole HCl]
inhibitory activity on xanthine oxidase [1]: no inhibitory activities | Clt ([2]; IV 2 mg/kg): 250 ± 72.3 mL/h | oral availability ([2]; compared to Ewha-89403): high oral availability | AUC(0-inf) ([2]; rat, in vivo, IV 2 mg/kg): 2150 ± 693 ng·h/mL | AUC(0-t) ([2]; rat, in vivo, IV 2 mg/kg): 1770 ± 697 ng·h/mL | C0 ([2]; rat, in vivo, IV 2 mg/kg): 7480 ± 3420 ng/mL | Vd ([2]; rat, in vivo, IV 2 mg/kg): 1.52 ± 1.17 L | half-life ([2]; rat, in vivo, IV 2 mg/kg): 4.07 ± 2.28 h | bioavailability ([2]; rat, in vivo, IV 2 mg/kg and oral 20 mg/kg, read-out: Absolute Bioavailability (BA)): 63.8% | AUC(0-inf) ([2]; rat, in vivo, oral 20 mg/kg): 14400 ± 8170 ng·h/mL | AUC(0-t) ([2]; rat, in vivo, oral 20 mg/kg): 11300 ± 6470 ng·h/mL | Cmax ([2]; rat, in vivo, oral 20 mg/kg): 5010 ± 2510 ng/mL | Tmax ([2]; rat, in vivo, oral 20 mg/kg): 0.233 ± 0.171 h | half-life ([2]; rat, in vivo, oral 20 mg/kg): 14.4 ± 3.73 h | apoptosis of OCs [3]: had no effect on apoptosis | BV/TV (trabecular bone volume) [4, 11]: 19.04 ± 3.10 ^a % | Ct.Th (cortical bone thickness) [4, 11]: 122.04 ± 11.96 ^a μm | N.OC/BS (osteoclast cell number, N/epiphyseal) [4, 11]: 14.13 ± 3.44 ^a numbers | Tb.N (trabecular bone number, N/epiphyseal) [4, 11]: 8.63 ± 1.60 ^a numbers | Tb.Th (trabecular bone thickness) [4, 11]: 34.89 ± 5.16 ^a μm | BV/TV (trabecular bone volume) [4, 12]: 29.39 ± 2.41 ^bc % | Ct.Th (cortical bone thickness) [4, 12]: 137.51 ± 10.96 ^ac μm | Tb.N (trabecular bone number, N/epiphyseal) [4, 12]: 12.50 ± 1.31 ^ac numbers | Tb.Th (trabecular bone thickness) [4, 12]: 48.34 ± 6.87 ^ac μm | BV/TV (trabecular bone volume) [4, 13]: 33.36 ± 4.35 ^c % | Ct.Th (cortical bone thickness) [4, 13]: 182.11 ± 12.48 ^c μm | N.OC/BS (osteoclast cell number, N/epiphyseal) [4, 13]: 8.13 ± 2.23 ^ac numbers | Tb.N (trabecular bone number, N/epiphyseal) [4, 13]: 15.00 ± 2.00 ^ac numbers | Tb.Th (trabecular bone thickness) [4, 13]: 53.36 ± 5.94 ^ac μm | BV/TV (trabecular bone volume) [4, 14]: 33.78 ± 3.47 ^c % | Ct.Th (cortical bone thickness) [4, 14]: 194.28 ± 15.50 ^c μm | N.OC/BS (osteoclast cell number, N/epiphyseal) [4, 14]: 6.88 ± 2.36 ^ac numbers | Tb.N (trabecular bone number, N/epiphyseal) [4, 14]: 17.13 ± 1.81 ^c numbers | Tb.Th (trabecular bone thickness) [4, 14]: 55.98 ± 7.15 ^ac μm | body weights as compared with OVX control mice [5]: no meaningful changes | BMD of femur compared to OVX control [6]: dramatic increased BMD | RANKL-mediated ROS generation ([7]; RANKL 200 ng/ml 10 minutes): reduced RANKL-mediated ROS generation in dose- and time-dependent manners | concentration at plateau of inhibition of RANKL-dependent ROS generation ([7]; after 60 min): 10 µM | fusion of OCs [8]: did not affect | activation of MAPKs (JNK, p38, ERK) and phosphorylation of IκBα [9]: suppressed activation | bone strength (FL) of femur and tibia compared to control OVX [10]: enhanced

— article PMC4792161, “A novel pyrazole derivative protects from ovariectomy-induced osteoporosis through the inhibition of NADPH oxidase” (Scientific Reports, 2016)
